This is an account of results in publication PMC7723751 (Bioorganic chemistry, 2020).

The target in assay [1] is T1, Human sEH (Homo sapiens, UniProt P34913).
T1 sequence (P34913 1-555): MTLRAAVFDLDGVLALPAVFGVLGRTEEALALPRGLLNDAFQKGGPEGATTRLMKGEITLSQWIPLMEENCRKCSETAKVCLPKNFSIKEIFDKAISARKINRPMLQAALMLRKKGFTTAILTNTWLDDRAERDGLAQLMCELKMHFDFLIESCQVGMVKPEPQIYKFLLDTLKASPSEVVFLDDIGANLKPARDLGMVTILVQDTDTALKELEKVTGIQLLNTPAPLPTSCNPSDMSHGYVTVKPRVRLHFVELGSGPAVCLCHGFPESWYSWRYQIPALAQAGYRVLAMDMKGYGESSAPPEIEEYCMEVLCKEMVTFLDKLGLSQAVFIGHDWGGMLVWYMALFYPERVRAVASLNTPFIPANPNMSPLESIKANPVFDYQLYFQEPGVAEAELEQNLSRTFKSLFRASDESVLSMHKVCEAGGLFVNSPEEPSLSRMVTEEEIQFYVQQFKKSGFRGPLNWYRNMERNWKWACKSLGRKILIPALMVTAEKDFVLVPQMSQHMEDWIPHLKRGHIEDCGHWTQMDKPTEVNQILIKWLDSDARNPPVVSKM
Kind of assay: Human sEH inhibition assay. To be noted: sEH IC50, human sEH 1 nM, CMNPC 5 μM, pH 7.0, 30 °C. It counts as biochemical.

Assay [2] deals with T2, human FAAH enzyme (Homo sapiens, UniProt O00519).
T2 sequence (O00519 1-579): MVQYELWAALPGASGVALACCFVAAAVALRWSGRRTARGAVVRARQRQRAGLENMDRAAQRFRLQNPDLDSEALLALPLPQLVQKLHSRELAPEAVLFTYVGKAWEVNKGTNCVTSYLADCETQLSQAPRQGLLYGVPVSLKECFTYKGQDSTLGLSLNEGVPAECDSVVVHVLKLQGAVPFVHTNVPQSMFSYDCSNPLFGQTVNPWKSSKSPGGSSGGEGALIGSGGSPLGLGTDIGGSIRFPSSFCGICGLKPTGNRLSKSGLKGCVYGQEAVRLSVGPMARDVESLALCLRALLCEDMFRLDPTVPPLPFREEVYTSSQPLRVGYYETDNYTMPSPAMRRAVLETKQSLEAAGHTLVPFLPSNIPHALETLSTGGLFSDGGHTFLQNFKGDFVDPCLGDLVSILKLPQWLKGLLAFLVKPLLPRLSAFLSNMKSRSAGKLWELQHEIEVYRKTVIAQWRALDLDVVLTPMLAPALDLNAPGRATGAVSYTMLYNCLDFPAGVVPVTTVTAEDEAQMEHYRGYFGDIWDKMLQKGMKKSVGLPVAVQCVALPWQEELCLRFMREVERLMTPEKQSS
Kind of assay: Human FAAH enzyme inhibition assay. It counts as biochemical.

One may read the IC50 as the concentration at which inhibition is half-maximal. The low end stands for greater potency in that assay, the high end for weaker potency in that assay.

Turning to `O=C(Nc1ccc(-c2nc3ccccc3s2)cc1)C1CCN(S(=O)(=O)c2cccc(F)c2)CC1` [Compound 4-9, N-(4-(benzo[d]thiazol-2-yl)phenyl)-1-((3-fluorophenyl)sulfonyl)piperidine-4-carboxamide], the half-maximal inhibitory concentration (IC50) in assay [1] came to 1.7 µM; in assay [2], 0.0134 µM.

Turning to `COc1cccc(S(=O)(=O)N2CCC(C(=O)Nc3ccc(-c4nc5ccccc5s4)cc3)CC2)c1` [Compound 4-13, N-(4-(benzo[d]thiazol-2-yl)phenyl)-1-((3-methoxyphenyl)sulfonyl)piperidine-4-carboxamide], the IC50 in assay [1] turned out to be 0.62 µM; in assay [2], 0.0146 µM.

Consider `O=C(Nc1ccc(-c2nc3ccccc3s2)cc1)C1CCN(S(=O)(=O)c2c(F)cc(F)cc2F)CC1` [Compound 4-26, N-(4-(benzo[d]thiazol-2-yl)phenyl)-1-((2,4,6-trifluorophenyl)sulfonyl)piperidine-4-carboxamide], for which the half-inhibitory concentration (IC50) was 6.6 µM in assay [1] and 0.25 µM in assay [2].

As for `O=C(Nc1ccc(-c2nc3ccccc3s2)cc1)C1CCN(S(=O)(=O)c2cc(Br)c(Cl)s2)CC1` [Compound 4-2, N-(4-(benzo[d]thiazol-2-yl)phenyl)-1-((4-bromo-5-chlorothiophen-2-yl)sulfonyl)piperidine-4-carboxamide], the values for the IC50 in assay [1] and in assay [2] were 5.9 µM and 2.7 µM, respectively.

With `Cc1cc(C)cc(S(=O)(=O)N2CCC(C(=O)Nc3ccc(-c4nc5ccccc5s4)cc3)CC2)c1` [Compound 4-25, N-(4-(benzo[d]thiazol-2-yl)phenyl)-1-((3,5-dimethylphenyl)sulfonyl)piperidine-4-carboxamide], the results for the half-maximal inhibitory concentration (IC50) in assay [1] and in assay [2] were 3.6 µM and greater than 10 µM, respectively.

As to `Cc1cccc(S(=O)(=O)N2CCC(C(=O)Nc3ccc(-c4nc5ccccc5s4)cc3)CC2)c1` [Compound 4-12, N-(4-(benzo[d]thiazol-2-yl)phenyl)-1-(m-tolylsulfonyl)piperidine-4-carboxamide], the IC50 is 0.94 µM in assay [1] and 0.007 µM in assay [2].

As to `Cc1ccc(S(=O)(=O)N2CCC(C(=O)Nc3ccc(-c4nc5ccccc5s4)cc3)CC2)c(C)c1` [Compound 4-22, N-(4-(benzo[d]thiazol-2-yl)phenyl)-1-((2,4-dimethylphenyl)sulfonyl)piperidine-4-carboxamide], the IC50 stood at 0.0292 µM in assay [1] and 0.0055 µM in assay [2].

As to `O=C(Nc1ccc(-c2nc3ccccc3s2)cc1)C1CCN(S(=O)(=O)c2ccc(Cl)cc2)CC1` [Compound 4-15, N-(4-(benzo[d]thiazol-2-yl)phenyl)-1-((4-chlorophenyl)sulfonyl)piperidine-4-carboxamide], the IC50 in assay [1] worked out at 0.71 µM; in assay [2] it was 0.26 µM.

With `O=C(Nc1ccc(-c2nc3ccccc3s2)cc1)C1CCN(S(=O)(=O)c2ccccc2)CC1` [Compound 4-3, N-(4-(benzo[d]thiazol-2-yl)phenyl)-1-(phenylsulfonyl)piperidine-4-carboxamide], the results for the IC50 in assay [1] and in assay [2] were 1.1 µM and 0.0086 µM, respectively.

Regarding `O=C(Nc1ccc(-c2nc3ccccc3s2)cc1)C1CCN(S(=O)(=O)c2cccs2)CC1` [Compound 4-1, N-(4-(benzo[d]thiazol-2-yl)phenyl)-1-(thiophen-2-ylsulfonyl)piperidine-4-carboxamide], the values for the IC50 in assay [1] and in assay [2] were 0.42 µM and 0.016 µM, respectively.

Take `O=C(Nc1ccc(-c2nc3ccccc3s2)cc1)C1CCN(S(=O)(=O)c2c(F)c(F)c(F)c(F)c2F)CC1` [Compound 4-30, N-(4-(benzo[d]thiazol-2-yl)phenyl)-1-((perfluorophenyl)sulfonyl)piperidine-4-carboxamide]: the IC50 in assay [1] is 2.67 µM; in assay [2] it was greater than 10 µM.

As to `COc1ccc(S(=O)(=O)N2CCC(C(=O)Nc3ccc(-c4nc5ccccc5s4)cc3)CC2)c(OC)c1` [Compound 4-23, N-(4-(benzo[d]thiazol-2-yl)phenyl)-1-((2,4-dimethoxyphenyl)sulfonyl)piperidine-4-carboxamide], the IC50 in assay [1] amounted to 0.18 µM; in assay [2] it was 0.0362 µM.

On to `O=C(Nc1ccc(-c2nc3ccccc3s2)cc1)C1CCN(S(=O)(=O)c2ccccc2Br)CC1` [Compound 4-6, N-(4-(benzo[d]thiazol-2-yl)phenyl)-1-((2-bromophenyl)sulfonyl)piperidine-4-carboxamide], for which the IC50 is 0.024 µM in assay [1] and 0.0061 µM in assay [2].

For `COc1ccc(S(=O)(=O)N2CCC(C(=O)Nc3ccc(-c4nc5ccccc5s4)cc3)CC2)cc1` [Compound 4-18, N-(4-(benzo[d]thiazol-2-yl)phenyl)-1-((4-methoxyphenyl)sulfonyl)piperidine-4-carboxamide], the IC50 was 0.084 µM in assay [1] and greater than 10 µM in assay [2].

On to `O=C(Nc1ccc(-c2nc3ccccc3s2)cc1)C1CCN(S(=O)(=O)c2ccccc2F)CC1` [Compound 4-4, N-(4-(benzo[d]thiazol-2-yl)phenyl)-1-((2-fluorophenyl)sulfonyl)piperidine-4-carboxamide], for which the IC50 turned out to be 0.15 µM in assay [1] and 0.0013 µM in assay [2].

On to `O=C(Nc1ccc(-c2nc3ccccc3s2)cc1)C1CCN(S(=O)(=O)c2cc(F)cc(F)c2)CC1` [Compound 4-24, N-(4-(benzo[d]thiazol-2-yl)phenyl)-1-((3,5-difluorophenyl)sulfonyl)piperidine-4-carboxamide], for which the IC50 in assay [1] is 1.1 µM; in assay [2], greater than 10 µM.

Turning to `O=C(Nc1ccc(-c2nc3ccccc3s2)cc1)C1CCN(S(=O)(=O)c2ccc(F)cc2)CC1` [Compound 4-14, N-(4-(benzo[d]thiazol-2-yl)phenyl)-1-((4-fluorophenyl)sulfonyl)piperidine-4-carboxamide], the half-inhibitory concentration (IC50) came out at 1.3 µM in assay [1] and 0.077 µM in assay [2].

Regarding `O=C(Nc1ccc(-c2nc3ccccc3s2)cc1)C1CCN(S(=O)(=O)c2ccc(Br)cc2)CC1` [Compound 4-16, N-(4-(benzo[d]thiazol-2-yl)phenyl)-1-((4-bromophenyl)sulfonyl)piperidine-4-carboxamide], the IC50 in assay [1] was found to be 0.58 µM; in assay [2], 0.185 µM.

Turning to `O=C(Nc1ccc(-c2nc3ccccc3s2)cc1)C1CCN(S(=O)(=O)c2c(Cl)cc(Cl)cc2Cl)CC1` [Compound 4-27, N-(4-(benzo[d]thiazol-2-yl)phenyl)-1-((2,4,6-trichlorophenyl)sulfonyl)piperidine-4-carboxamide], the 50% inhibitory concentration (IC50) in assay [1] worked out at 1.3 µM; in assay [2] it was 0.27 µM.

With `O=C(Nc1ccc(-c2nc3ccccc3s2)cc1)C1CCN(S(=O)(=O)c2cccc(Br)c2)CC1` [Compound 4-11, N-(4-(benzo[d]thiazol-2-yl)phenyl)-1-((3-bromophenyl)sulfonyl)piperidine-4-carboxamide], the IC50 in assay [1] was 1.1 µM; in assay [2], 0.0516 µM.

`Cc1ccc(S(=O)(=O)N2CCC(C(=O)Nc3ccc(-c4nc5ccccc5s4)cc3)CC2)cc1` [Compound 4-17, N-(4-(benzo[d]thiazol-2-yl)phenyl)-1-tosylpiperidine-4-carboxamide]: the half-inhibitory concentration (IC50) in assay [1] is 0.37 µM; in assay [2], greater than 10 µM.

In the case of `O=C(Nc1ccc(-c2nc3ccccc3s2)cc1)C1CCN(S(=O)(=O)c2cccc(Cl)c2)CC1` [Compound 4-10, N-(4-(benzo[d]thiazol-2-yl)phenyl)-1-((3-chlorophenyl)sulfonyl)piperidine-4-carboxamide], the IC50 was found to be 2.4 µM in assay [1] and 0.0072 µM in assay [2].

Turning to `O=C(Nc1ccc(-c2nc3ccccc3s2)cc1)C1CCN(S(=O)(=O)c2ccc(F)cc2F)CC1` [Compound 4-19, N-(4-(benzo[d]thiazol-2-yl)phenyl)-1-((2,4-difluorophenyl)sulfonyl)piperidine-4-carboxamide], the IC50 in assay [1] was 0.195 µM; in assay [2], 0.0114 µM.

As for `Cc1ccccc1S(=O)(=O)N1CCC(C(=O)Nc2ccc(-c3nc4ccccc4s3)cc2)CC1` [Compound 4-7, N-(4-(benzo[d]thiazol-2-yl)phenyl)-1-(o-tolylsulfonyl)piperidine-4-carboxamide], the IC50 is 0.035 µM in assay [1] and 0.0096 µM in assay [2].

In the case of `Cc1cc(C)c(S(=O)(=O)N2CCC(C(=O)Nc3ccc(-c4nc5ccccc5s4)cc3)CC2)c(C)c1` [Compound 4-28, N-(4-(benzo[d]thiazol-2-yl)phenyl)-1-(mesitylsulfonyl)piperidine-4-carboxamide], the IC50 in assay [1] is 0.79 µM; in assay [2], 0.084 µM.

In the case of `O=C(Nc1ccc(-c2nc3ccccc3s2)cc1)C1CCN(S(=O)(=O)c2ccc(Br)cc2Br)CC1` [Compound 4-21, N-(4-(benzo[d]thiazol-2-yl)phenyl)-1-((2,4-dibromophenyl)sulfonyl)piperidine-4-carboxamide], the IC50 in assay [1] came to 0.036 µM; in assay [2] it was 0.01 µM.
